Test results from patent US20230173086A1, “PEPTIDE CONJUGATES AND THERAPEUTIC AGENTS HAVING IMPROVED PHARMACOLOGICAL AND PHARMACOKINETIC PROPERTIES” (Resolute Bio, Inc., priority 2021, published 2023).

What follows are substances tested on RBCs. Conditions: Table 1, D-Ala scanning of 1a.
Procedure: RBC binding ranked by MESF (molecules of equivalent soluble fluorescence), or intensity of fluorescent signal measured when RBCs were incubated with a given concentration of peptide.
High=MESF value>1000 fluorescent units
Medium=MESF Value from 300 to 1000 fluorescent units
Low=MESF Value from 15 to 300 fluorescent units

| Substance | Classification of RBC binding properties (MESF) |
| --- | --- |
| H-phe-trp-his-pro-trp-ala-met-met-tyr-ala-Gly-Gly-Gly-lys(Biotin)-NH2 [Peptide 1j] | High (MESF value>1000 fluorescent units) |
| H-phe-ala-his-pro-trp-ala-met-met-tyr-lys-Gly-Gly-Gly-lys(Biotin)-NH2 [Peptide 1c] | Does Not Bind (MESF Value below 15 fluorescent units) |
| H-phe-trp-his-pro-trp-ala-met-ala-tyr-lys-Gly-Gly-Gly-lys(Biotin)-NH2 [Peptide 1h] | Low (MESF Value from 15 to 300 fluorescent units) |
| H-phe-trp-his-pro-ala-ala-met-met-tyr-lys-Gly-Gly-Gly-lys(Biotin)-NH2 [Peptide 1f] | Does Not Bind (MESF Value below 15 fluorescent units) |
| H-ala-trp-his-pro-trp-ala-met-met-tyr-lys-Gly-Gly-Gly-lys(Biotin)-NH2 [Peptide 1b] | Low (MESF Value from 15 to 300 fluorescent units) |
| H-phe-trp-his-pro-trp-ala-ala-met-tyr-lys-Gly-Gly-Gly-lys(Biotin)-NH2 [ig] | Does Not Bind (MESF Value below 15 fluorescent units) |
| H-phe-trp-his-pro-trp-ala-met-met-ala-lys-Gly-Gly-Gly-lys(Biotin)-NH2 [Peptide 1i] | Low (MESF Value from 15 to 300 fluorescent units) |
| H-phe-trp-his-ala-trp-ala-met-met-tyr-lys-Gly-Gly-Gly-lys(Biotin)-NH2 [Peptide 1e] | High (MESF value>1000 fluorescent units) |
| H-phe-trp-his-pro-trp-ala-met-met-tyr-lys-Gly-Gly-Gly-lys(Biotin)-NH2 [Peptide 1a] | High (MESF value>1000 fluorescent units) |
| H-phe-trp-ala-pro-trp-ala-met-met-tyr-lys-Gly-Gly-Gly-lys(Biotin)-NH2 [Peptide 1d] | Medium (MESF Value from 300 to 1000 fluorescent units) |

Same assay, conditions: Table 2, 1a analogs

| Substance | Classification of RBC binding properties (MESF) |
| --- | --- |
| H-phe-trp-tyr-pro-trp-ala-met-met-tyr-lys-Gly-Gly-Gly-lys(Biotin)-NH2 [Peptide 2j] | Low (MESF Value from 15 to 300 fluorescent units) |
| H-phe-trp-his-NMeGly-trp-ala-met-met-tyr-lys-Gly-Gly-Gly-lys(Biotin)-NH2 [Peptide 2k] | Low (MESF Value from 15 to 300 fluorescent units) |
| H-phe-trp-his-pro-trp-ala-leu-leu-tyr-lys-Gly-Gly-Gly-lys(Biotin)-NH2 [Peptide 2c] | Does Not Bind (MESF Value below 15 fluorescent units) |
| H-phe-trp-his-pro-trp-ala-nle-nle-tyr-lys-Gly-Gly-Gly-lys(Biotin)-NH2 [Peptide 2a] | Medium (MESF Value from 300 to 1000 fluorescent units) |
| H-phe-trp-ser-pro-trp-ala-met-met-tyr-lys-Gly-Gly-Gly-lys(Biotin)-NH2 [Peptide 2i] | Low (MESF Value from 15 to 300 fluorescent units) |
| H-phe-trp-his-L-Pro-trp-ala-met-met-tyr-lys-Gly-Gly-Gly-lys(Biotin)-NH2 [Peptide 2l] | Low (MESF Value from 15 to 300 fluorescent units) |
| H-phe-trp-his-pro-trp-ala-met-met-tyr-lys-Gly-Gly-Gly-cys(trt)-Gly-lys(Biotin)-NH2 [Peptide 2h] | Does Not Bind (MESF Value below 15 fluorescent units) |
| H-phe-trp-his-pro-trp-ala-ala-ala-tyr-lys-Gly-Gly-Gly-lys(Biotin)-NH2 [Peptide 2b] | High (MESF value>1000 fluorescent units) |
| H-phe-trp-his-pro-trp-ala-met-met-tyr-lys-Gly-Gly-Gly-(H-phe-trp-his-pro-trp-ala-met-met-tyr-lys-Gly-Gly-Gly)-lys-Gly-Gly-lys(Biotin)-NH2 [Peptide 2d] | High (MESF value>1000 fluorescent units) |
| H-phe-trp-his-pro-trp-ala-met-met-tyr-lys-Gly-Gly-Gly-lys(C18diacid)-lys(Biotin)-NH2 [Peptide 2e] | Medium (MESF Value from 300 to 1000 fluorescent units) |
| Ac-phe-trp-his-pro-trp-ala-met-met-tyr-lys-Gly-Gly-Gly-lys(Biotin)-NH2 [Peptide 2g] | Does Not Bind (MESF Value below 15 fluorescent units) |
| H-phe-trp-his-pro-trp-ala-met-met-tyr-lys-Gly-Gly-Gly-lys(Biotin)-NH2 [Peptide 1a] | High (MESF value>1000 fluorescent units) |
| H-ala-pro-met-phe-tyr-trp-lys-his-met-trp-Gly-Gly-Gly-lys(Biotin)-NH2 [Peptide 2f] | Low (MESF Value from 15 to 300 fluorescent units) |
| H-phe-trp-his-αMepro-trp-ala-met-met-tyr-lys-Gly-Gly-Gly-lys(Biotin)-NH2 [Peptide 2m] | Does Not Bind (MESF Value below 15 fluorescent units) |

Same assay, conditions: Table 3, structurally-diverse all-D-peptides

| Substance | Classification of RBC binding properties (MESF) |
| --- | --- |
| H-leu-trp-his-pro-trp-ala-met-pro-glu-lys-Gly-Gly-Gly-lys(Biotin)-NH2 [Peptide 3m] | Low (MESF Value from 15 to 300 fluorescent units) |
| H-phe-trp-val-pro-phe-trp-trp-lys-thr-lys-Gly-Gly-Gly-lys(Biotin)-NH2 [Peptide 3d] | Low (MESF Value from 15 to 300 fluorescent units) |
| H-met-phe-his-pro-phe-ala-phe-met-tyr-lys-Gly-Gly-Gly-lys(Biotin)-NH2 [Peptide 3o] | Medium (MESF Value from 300 to 1000 fluorescent units) |
| H-phe-tyr-tyr-pro-trp-pro-val-thr-tyr-lys-Gly-Gly-Gly-lys(Biotin)-NH2 [Peptide 3k] | Does Not Bind (MESF Value below 15 fluorescent units) |
| H-trp-tyr-leu-pro-pro-leu-trp-his-ala-lys-Gly-Gly-Gly-lys(Biotin)-NH2 [Peptide 3u] | Does Not Bind (MESF Value below 15 fluorescent units) |
| H-pro-phe-tyr-thr-tyr-his-trp-tyr-ser-lys-Gly-Gly-Gly-lys(Biotin)-NH2 [Peptide 3p] | Does Not Bind (MESF Value below 15 fluorescent units) |
| H-tyr-trp-val-pro-met-trp-val-his-val-lys-Gly-Gly-Gly-lys(Biotin)-NH2 [Peptide 3w] | Low (MESF Value from 15 to 300 fluorescent units) |
| H-phe-phe-his-pro-phe-ala-trp-phe-his-lys-Gly-Gly-Gly-lys(Biotin)-NH2 [Peptide 3h] | Low (MESF Value from 15 to 300 fluorescent units) |
| H-ser-trp-his-pro-val-trp-Gly-trp-leu-lys-Gly-Gly-Gly-lys(Biotin)-NH2 [Peptide 3g] | Low (MESF Value from 15 to 300 fluorescent units) |
| H-tyr-phe-leu-tyr-leu-pro-tyr-his-thr-lys-Gly-Gly-Gly-lys(Biotin)-NH2 [Peptide 3v] | Low (MESF Value from 15 to 300 fluorescent units) |
| H-leu-his-his-pro-trp-pro-tyr-phe-tyr-lys-Gly-Gly-Gly-lys(Biotin)-NH2 [Peptide 3e] | Low (MESF Value from 15 to 300 fluorescent units) |
| H-phe-trp-his-pro-trp-phe-phe-lys-thr-lys-Gly-Gly-Gly-lys(Biotin)-NH2 [Peptide 3c] | Low (MESF Value from 15 to 300 fluorescent units) |
| H-phe-phe-his-pro-trp-ser-trp-thr-ser-lys-Gly-Gly-Gly-lys(Biotin)-NH2 [Peptide 3a] | High (MESF value>1000 fluorescent units) |
| H-leu-trp-ser-pro-val-phe-phe-phe-pro-lys-Gly-Gly-Gly-lys(Biotin)-NH2 [Peptide 3n] | Does Not Bind (MESF Value below 15 fluorescent units) |
| H-val-phe-his-pro-phe-trp-Gly-tyr-phe-lys-Gly-Gly-Gly-lys(Biotin)-NH2 [Peptide 3s] | Does Not Bind (MESF Value below 15 fluorescent units) |
| H-pro-his-his-pro-phe-ala-leu-phe-leu-lys-Gly-Gly-Gly-lys(Biotin)-NH2 [Peptide 3q] | Medium (MESF Value from 300 to 1000 fluorescent units) |
| H-phe-trp-his-pro-trp-ala-met-met-tyr-lys-Gly-Gly-Gly-lys(Biotin)-NH2 [Peptide 1a] | High (MESF value>1000 fluorescent units) |
| H-ser-Gly-val-asp-thr-tyr-leu-thr-his-lys-Gly-Gly-Gly-lys(Biotin)-NH2 [Peptide 3r] | Medium (MESF Value from 300 to 1000 fluorescent units) |
| H-phe-phe-his-pro-tyr-Gly-leu-phe-val-lys-Gly-Gly-Gly-lys(Biotin)-NH2 [Peptide 3b] | Medium (MESF Value from 300 to 1000 fluorescent units) |
| H-phe-trp-tyr-val-his-thr-thr-Gly-trp-lys-Gly-Gly-Gly-lys(Biotin)-NH2 [Peptide 3j] | Does Not Bind (MESF Value below 15 fluorescent units) |
| H-leu-phe-his-pro-trp-pro-ala-phe-pro-lys-Gly-Gly-Gly-lys(Biotin)-NH2 [Peptide 3l] | High (MESF value>1000 fluorescent units) |
| H-trp-val-pro-Gly-phe-trp-tyr-his-tyr-lys-Gly-Gly-Gly-lys(Biotin)-NH2 [Peptide 3t] | Low (MESF Value from 15 to 300 fluorescent units) |
| H-phe-phe-his-val-pro-val-phe-ser-val-lys-Gly-Gly-Gly-lys(Biotin)-NH2 [Peptide 3i] | Medium (MESF Value from 300 to 1000 fluorescent units) |
| H-leu-trp-his-pro-tyr-leu-phe-leu-trp-lys-Gly-Gly-Gly-lys(Biotin)-NH2 [Peptide 3f] | Does Not Bind (MESF Value below 15 fluorescent units) |
